Measurements reported in US20260083761A1, “PHARMACEUTICAL COMPOSITION FOR TREATING BRAIN DISEASE, NEURONAL MIGRATION PROMOTER, AND USE THEREOF” (PUBLIC UNIVERSITY CORPORATION NAGOYA CITY UNIVERSITY, priority 2022, published 2026).

Columns and labels:
[1] = tested on: V-SVZ-derived new neurons co-cultured with BV2 cells; experiment: Experiment 10: co-culture of V-SVZ-derived new neurons with LPS-stimulated BV2 cells; PSA signal and time-lapse imaging; type: cell-based, mouse; settings: inhibitor final concentration 1 mM, vs PBS (LPS+) and control (LPS−)
Neu3 = target: T1, Neu3 (Homo sapiens, UniProt Q9UQ49); settings: human neuraminidases; reported; cited from earlier work
T1 sequence (Q9UQ49 1-461 isoform Q9UQ49-2): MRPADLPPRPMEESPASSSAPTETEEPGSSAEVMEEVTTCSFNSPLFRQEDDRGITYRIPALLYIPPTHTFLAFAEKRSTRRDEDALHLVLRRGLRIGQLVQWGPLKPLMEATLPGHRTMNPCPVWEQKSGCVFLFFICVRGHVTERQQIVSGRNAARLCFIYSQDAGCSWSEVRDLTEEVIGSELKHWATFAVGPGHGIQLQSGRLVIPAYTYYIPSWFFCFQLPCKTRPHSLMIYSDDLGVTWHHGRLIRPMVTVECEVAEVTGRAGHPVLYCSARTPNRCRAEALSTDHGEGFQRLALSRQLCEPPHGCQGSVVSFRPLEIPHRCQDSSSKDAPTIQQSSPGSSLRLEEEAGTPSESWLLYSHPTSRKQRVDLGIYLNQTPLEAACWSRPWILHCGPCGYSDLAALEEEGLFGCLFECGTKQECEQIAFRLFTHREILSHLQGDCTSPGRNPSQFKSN

Neu4 = target: T2, Neu4 (Homo sapiens, UniProt Q8WWR8); settings: human neuraminidases; reported; cited from earlier work
T2 sequence (Q8WWR8 1-496 isoform Q8WWR8-2): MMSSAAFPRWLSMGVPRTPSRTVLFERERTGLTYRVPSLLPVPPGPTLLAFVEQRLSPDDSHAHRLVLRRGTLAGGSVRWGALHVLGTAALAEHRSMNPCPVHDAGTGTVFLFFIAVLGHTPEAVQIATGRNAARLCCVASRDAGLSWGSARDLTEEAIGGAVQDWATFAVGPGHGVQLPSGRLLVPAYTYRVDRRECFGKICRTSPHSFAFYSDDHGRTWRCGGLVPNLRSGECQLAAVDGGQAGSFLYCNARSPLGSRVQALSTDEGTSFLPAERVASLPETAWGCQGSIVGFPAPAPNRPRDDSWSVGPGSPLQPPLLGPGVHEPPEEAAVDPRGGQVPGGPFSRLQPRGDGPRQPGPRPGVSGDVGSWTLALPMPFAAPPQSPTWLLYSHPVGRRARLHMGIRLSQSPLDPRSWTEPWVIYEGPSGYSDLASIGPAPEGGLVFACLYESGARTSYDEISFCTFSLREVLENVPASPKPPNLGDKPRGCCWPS

V-SVZ-derived neurons = experiment: Experiment 12: Zanamivir in Nestin-CreERT2;NSE-DTA mice with new neurons removed; FFT and double-positive cells; type: in vivo, mouse; settings: Nestin-CreERT2;NSE-DTA group, unlike NSE-DTA group; Zanamivir 50 mg/kg i.p. for 14 days from day 7 after injury; FFT 14 days after end of administration
[2] = tested on: new neurons migrating to the brain injury site; experiment: Experiment 13: Zanamivir in common marmosets with brain injury; PSA-NCAM and Dcx immunostaining; type: in vivo, common marmoset (Callithrix jacchus); settings: common marmoset, 50 mg/kg i.p. for 21 days from day 7 after injury, fixed 28 days after injury

SMILES | PSA signal intensity [1] | inhibitory effect on human Neu3 (Neu3) | inhibitory effect on human Neu4 (Neu4) | left-side slipping-off rate in the FFT (V-SVZ-derived neurons) | localization of new neurons (distance of Dcx-positive cells from the injury site) ([2]; vs control) | PSA signal intensity of new neurons localized in the striatum on the injury side ([2]; vs non-administration control)
CC(=O)N[C@H]1[C@H]([C@H](O)[C@H](O)CO)OC(C(=O)O)=C[C@@H]1O [DANA, 2,3-dehydro-2-deoxy-N-acetylneuraminic acid] | maintained |  |  |  |  | 
CC(=O)N[C@H]1[C@H]([C@H](O)[C@H](O)CO)OC(C(=O)O)=C[C@@H]1N=C(N)N [Zanamivir] | maintained | inhibitory effect has been reported | inhibitory effect has been reported | no improvement | localized closer to the injury site | maintain
